Data: patent publication US8513238B2 (Hoffmann-La Roche Inc., priority 2010, dated 2013)
Where a name gives a salt, the structure may show the parent alone.

Target: T1, human V1a receptor (Homo sapiens, UniProt P37288)
T1 construct: expressed in transfected cells; host or cells: HEK293 cells, transiently transfected; membranes prepared
Test: human V1a receptor binding (3H-Vasopressin SPA, HEK293 membranes)
Conditions: membranes of HEK293 cells transiently transfected with human V1a receptor, Ki by Cheng-Prussoff, read-out: pKi (hV1a) (converted)
Experimental: The human V1a receptor was cloned by RT-PCR from total human liver RNA. The coding sequence was subcloned in an expression vector after sequencing to confirm the identity of the amplified sequence. […] Cell membranes were prepared from HEK293 cells transiently transfected with the expression vector and grown in 20 liter fermenters with the following protocol.
50 g of cells are resuspended in 30 ml freshly prepared ice cold Lysis buffer (50 mM HEPES, 1 mM EDTA, 10 mM magnesium dichloride adjusted to pH=7.4+complete cocktail of protease inhibitor (Roche Diagnostics)). Homogenized with Polytron for 1 min and sonicated on ice for 2×2 minutes at 80% intensity (Vibracell sonicator). The preparation is centrifuged 20 min at 500 g at 4° C., the pellet is discarded and the supernatant centrifuged 1 hour at 43,000 g at 4° C. (19,000 rpm). The pellet is resuspended in 12.5 ml Lysis buffer+12.5 ml sucrose 20% and homogenized using a Polytron for 1-2 min. The protein concentration is determined by the Bradford method and aliquots are stored at −80° C. until use. For binding studies 60 mg Yttrium silicate SPA beads (Amersham®) are mixed with an aliquot of membrane in binding buffer (50 mM Tris, 120 mM sodium chloride, 5 mM potassium chloride, 2 mM calcium dichloride, 10 mM magnesium dichloride) for 15 minutes with mixing. 50 μl of bead/membrane mixture is then added to each well of a 96 well plate, followed by 50 μl of 4 nM 3H-Vasopressin (American Radiolabeled Chemicals). For total binding measurement 100 μl of binding buffer are added to the respective wells, for non-specific binding 100 μl of 8.4 mM cold vasopressin and for compound testing 100 μl of a serial dilution of each compound in 2% dimethyl sulfoxide. The plate is incubated 1 h at room temperature, centrifuged 1 min at 1000 g and counted on a Packard Top-Count. Non-specific binding counts are subtracted from each well and data is normalized to the maximum specific binding set at 100%. To calculate an IC50 the curve is fitted using a non-linear regression model (XLfit) and the Ki is calculated using the Cheng-Prussoff equation.

T1 sequence (P37288 whole entry): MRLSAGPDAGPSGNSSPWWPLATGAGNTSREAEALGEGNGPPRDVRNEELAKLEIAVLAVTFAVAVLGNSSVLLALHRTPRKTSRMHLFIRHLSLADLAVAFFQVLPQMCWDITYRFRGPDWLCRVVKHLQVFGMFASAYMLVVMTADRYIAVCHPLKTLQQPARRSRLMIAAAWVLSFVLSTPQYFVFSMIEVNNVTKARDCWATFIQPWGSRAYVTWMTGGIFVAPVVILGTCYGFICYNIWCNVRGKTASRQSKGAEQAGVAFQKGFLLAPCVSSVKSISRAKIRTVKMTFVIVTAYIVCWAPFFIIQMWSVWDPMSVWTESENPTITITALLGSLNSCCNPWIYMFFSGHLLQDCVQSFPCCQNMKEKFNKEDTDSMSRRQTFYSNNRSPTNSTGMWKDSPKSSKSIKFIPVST

With `COCCN1Cc2cc(Cl)ccc2-n2c(nnc2[C@H]2CC[C@H](c3cc(C)on3)CC2)C1` [Example 29, trans-8-Chloro-5-(2-methoxy-ethyl)-1-[4-(5-methyl-isoxazol-3-yl)-cyclohexyl]-5,6-dihydro-4H-2,3,5,10b-tetraaza-benzo[e]azulene] the Ki was 1.58 nM.

`CNCCN1Cc2cc(Cl)ccc2-n2c(nnc2[C@H]2CC[C@H](c3cc(C)on3)CC2)C1` [Example 30, trans-(2-{8-Chloro-1-[4-(5-methyl-isoxazol-3-yl)-cyclohexyl]-4H,6H-2,3,5,10b-tetraaza-benzo[e]azulen-5-yl}-ethyl)-methyl-amine] was tested, and the Ki was 25.1 nM.

`CC(=O)N1Cc2cc(Cl)ccc2-n2c(nnc2[C@H]2CC[C@H](c3cc(C)on3)CC2)C1` [Example 31, trans-1-{8-Chloro-1-[4-(5-methyl-isoxazol-3-yl)-cyclohexyl]-4H,6H-2,3,5,10b-tetraaza-benzo[e]azulen-5-yl}-ethanone] gave a Ki of 1.74 nM.

Compound `Cc1cc([C@H]2CC[C@H](c3nnc4n3-c3ccc(Cl)cc3CN(C(=O)CO)C4)CC2)no1` [Example 32, trans-1-{8-Chloro-1-[4-(5-methyl-isoxazol-3-yl)-cyclohexyl]-4H,6H-2,3,5,10b-tetraaza-benzo[e]azulen-5-yl}-2-hydroxy-ethanone] has a Ki of 2.88 nM.

`Cc1cc([C@H]2CC[C@H](c3nnc4n3-c3ccc(Cl)cc3CN(C(=O)CN(C)C)C4)CC2)no1` [Example 33, trans-1-{8-Chloro-1-[4-(5-methyl-isoxazol-3-yl)-cyclohexyl]-4H,6H-2,3,5,10b-tetraaza-benzo[e]azulen-5-yl}-2-dimethylamino-ethanone hydroformate] gave a Ki of 2 nM.

`Cc1cc([C@H]2CC[C@H](c3nnc4n3-c3ccc(Cl)cc3CN(S(C)(=O)=O)C4)CC2)no1` [Example 34, trans-8-Chloro-5-methanesulfonyl-1-[4-(5-methyl-isoxazol-3-yl)-cyclohexyl]-5,6-dihydro-4H-2,3,5,10b-tetraaza-benzo[e]azulene] gave a Ki of 0.275 nM.

`Cc1cc([C@H]2CC[C@H](c3nnc4n3-c3ccc(Cl)cc3CN(S(=O)(=O)N(C)C)C4)CC2)no1` [Example 35, trans-8-Chloro-1-[4-(5-methyl-isoxazol-3-yl)-cyclohexyl]-4H,6H-2,3,5,10b-tetraaza-benzo[e]azulene-5-sulfonic acid dimethylamide] gave a Ki of 0.501 nM.

With `Cc1cc([C@H]2CC[C@H](c3nnc4n3-c3ccc(F)cc3CN(C(=O)OC(C)(C)C)C4)CC2)no1` [Example 36, trans-8-Fluoro-1-[4-(5-methyl-isoxazol-3-yl)-cyclohexyl]-4H,6H-2,3,5,10b-tetraaza-benzo[e]azulene-5-carboxylic acid tert-butyl ester] the Ki was 0.776 nM.

With `Cc1cc([C@H]2CC[C@H](c3nnc4n3-c3ccc(F)cc3CNC4)CC2)no1` [Example 37, trans-8-Fluoro-1-[4-(5-methyl-isoxazol-3-yl)-cyclohexyl]-5,6-dihydro-4H-2,3,5,10b-tetraaza-benzo[e]azulene] the Ki was 91.2 nM.

`Cc1cc([C@H]2CC[C@H](c3nnc4n3-c3ccc(F)cc3CN(C)C4)CC2)no1` [Example 38, trans-8-Fluoro-1-[4-(5-methyl-isoxazol-3-yl)-cyclohexyl]-5-methyl-5,6-dihydro-4H-2,3,5,10b-tetraaza-benzo[e]azulene] gave a Ki of 18.6 nM.

With `Cc1onc([C@H]2CC[C@H](c3nnc4n3-c3ccc(Cl)cc3CN(C(=O)OC(C)(C)C)C4)CC2)c1C` [Example 39, trans-8-Chloro-1-[4-(4,5-dimethyl-isoxazol-3-yl)-cyclohexyl]-4H,6H-2,3,5,10b-tetraaza-benzo[e]azulene-5-carboxylic acid tert-butyl ester] the Ki was 0.2 nM.

Compound `Cc1onc([C@H]2CC[C@H](c3nnc4n3-c3ccc(Cl)cc3CNC4)CC2)c1C` [Example 40, trans-8-Chloro-1-[4-(4,5-dimethyl-isoxazol-3-yl)-cyclohexyl]-5,6-dihydro-4H-2,3,5,10b-tetraaza-benzo[e]azulene] has a Ki of 4.79 nM.

In the case of `Cc1onc([C@H]2CC[C@H](c3nnc4n3-c3ccc(Cl)cc3CN(C)C4)CC2)c1C` [Example 41, trans-8-Chloro-1-[4-(4,5-dimethyl-isoxazol-3-yl)-cyclohexyl]-5-methyl-5,6-dihydro-4H-2,3,5,10b-tetraaza-benzo[e]azulene], the Ki is reported as 0.501 nM.

Compound `Cc1onc([C@H]2CC[C@H](c3nnc4n3-c3ccc(Cl)cc3CN(C(=O)OC(C)(C)C)C4)CC2)c1Cl` [Example 42, trans-8-Chloro-1-[4-(4-chloro-5-methyl-isoxazol-3-yl)-cyclohexyl]-4H,6H-2,3,5,10b-tetraaza-benzo[e]azulene-5-carboxylic acid tert-butyl ester] has a Ki of 0.398 nM.

`Cc1onc([C@H]2CC[C@H](c3nnc4n3-c3ccc(Cl)cc3CNC4)CC2)c1Cl` [Example 43, trans-8-Chloro-1-[4-(4-chloro-5-methyl-isoxazol-3-yl)-cyclohexyl]-5,6-dihydro-4H-2,3,5,10b-tetraaza-benzo[e]azulene] was tested, and the Ki was 5.89 nM.

For `Cc1onc([C@H]2CC[C@H](c3nnc4n3-c3ccc(Cl)cc3CN(C)C4)CC2)c1Cl` [Example 44, trans-8-Chloro-1-[4-(4-chloro-5-methyl-isoxazol-3-yl)-cyclohexyl]-5-methyl-5,6-dihydro-4H-2,3,5,10b-tetraaza-benzo[e]azulene], the Ki was 0.603 nM.

`Cc1onc([C@H]2CC[C@H](c3nnc4n3-c3ccc(Cl)cc3CN(C(=O)OC(C)(C)C)C4)CC2)c1F` [Example 45, trans-8-Chloro-1-[4-(4-fluoro-5-methyl-isoxazol-3-yl)-cyclohexyl]-4H,6H-2,3,5,10b-tetraaza-benzo[e]azulene-5-carboxylic acid tert-butyl ester] gave a Ki of 0.724 nM.

Work on `Cc1onc([C@H]2CC[C@H](c3nnc4n3-c3ccc(Cl)cc3CNC4)CC2)c1F` [Example 46, trans-8-Chloro-1-[4-(4-fluoro-5-methyl-isoxazol-3-yl)-cyclohexyl]-5,6-dihydro-4H-2,3,5,10b-tetraaza-benzo[e]azulene] yielded a Ki of 8.51 nM.

`Cc1onc([C@H]2CC[C@H](c3nnc4n3-c3ccc(Cl)cc3CN(C)C4)CC2)c1F` [Example 47, trans-8-Chloro-1-[4-(4-fluoro-5-methyl-isoxazol-3-yl)-cyclohexyl]-5-methyl-5,6-dihydro-4H-2,3,5,10b-tetraaza-benzo[e]azulene] was tested, and the Ki was 0.575 nM.

For `CCc1cc([C@H]2CC[C@@H](c3nnc4n3-c3ccc(Cl)cc3CN(C(=O)OC(C)(C)C)C4)CC2)no1` [Example 48, cis-8-Chloro-1-[4-(5-ethyl-isoxazol-3-yl)-cyclohexyl]-4H,6H-2,3,5,10b-tetraaza-benzo[e]azulene-5-carboxylic acid tert-butyl ester], the Ki was 8.32 nM.

`CCc1cc([C@H]2CC[C@H](c3nnc4n3-c3ccc(Cl)cc3CN(C(=O)OC(C)(C)C)C4)CC2)no1` [Example 49, trans-8-Chloro-1-[4-(5-ethyl-isoxazol-3-yl)-cyclohexyl]-4H,6H-2,3,5,10b-tetraaza-benzo[e]azulene-5-carboxylic acid tert-butyl ester] showed a Ki of 4.07 nM.

Compound `CCc1cc([C@H]2CC[C@@H](c3nnc4n3-c3ccc(Cl)cc3CNC4)CC2)no1` [Example 50, cis-8-Chloro-1-[4-(5-ethyl-isoxazol-3-yl)-cyclohexyl]-5,6-dihydro-4H-2,3,5,10b-tetraaza-benzo[e]azulene hydrochloride] has a Ki of 182 nM.

`CCc1cc([C@H]2CC[C@@H](c3nnc4n3-c3ccc(Cl)cc3CN(C)C4)CC2)no1` [Example 51, cis-8-Chloro-1-[4-(5-ethyl-isoxazol-3-yl)-cyclohexyl]-5-methyl-5,6-dihydro-4H-2,3,5,10b-tetraaza-benzo[e]azulene] gave a Ki of 15.5 nM.

`CCc1cc([C@H]2CC[C@H](c3nnc4n3-c3ccc(Cl)cc3CNC4)CC2)no1` [Example 52, trans-8-Chloro-1-[4-(5-ethyl-isoxazol-3-yl)-cyclohexyl]-5,6-dihydro-4H-2,3,5,10b-tetraaza-benzo[e]azulene hydrochloride] gave a Ki of 6.31 nM.

Compound `CCc1cc([C@H]2CC[C@H](c3nnc4n3-c3ccc(Cl)cc3CN(C)C4)CC2)no1` [Example 53, trans-8-Chloro-1-[4-(5-ethyl-isoxazol-3-yl)-cyclohexyl]-5-methyl-5,6-dihydro-4H-2,3,5,10b-tetraaza-benzo[e]azulene] has a Ki of 1.2 nM.

`CC(C)(C)OC(=O)N1Cc2cc(Cl)ccc2-n2c(nnc2[C@H]2CC[C@H](c3noc4c3CCCC4)CC2)C1` [Example 54, trans-8-Chloro-1-[4-(4,5,6,7-tetrahydro-benzo[d]isoxazol-3-yl)-cyclohexyl]-4H,6H-2,3,5,10b-tetraaza-benzo[e]azulene-5-carboxylic acid tert-butyl ester] showed a Ki of 9.55 nM.
